# Test results from article PMC5945515, “Measuring glucocorticoid receptor expression in vivo with PET” (Oncotarget, 2018).
# Experiments:
# huMR = biological target: T1, huMR (Homo sapiens, UniProt P08235); experiment: Competition binding assay on cells, human MR; details: displacing 3H-aldosterone on cells
# T1 sequence (P08235 1-984): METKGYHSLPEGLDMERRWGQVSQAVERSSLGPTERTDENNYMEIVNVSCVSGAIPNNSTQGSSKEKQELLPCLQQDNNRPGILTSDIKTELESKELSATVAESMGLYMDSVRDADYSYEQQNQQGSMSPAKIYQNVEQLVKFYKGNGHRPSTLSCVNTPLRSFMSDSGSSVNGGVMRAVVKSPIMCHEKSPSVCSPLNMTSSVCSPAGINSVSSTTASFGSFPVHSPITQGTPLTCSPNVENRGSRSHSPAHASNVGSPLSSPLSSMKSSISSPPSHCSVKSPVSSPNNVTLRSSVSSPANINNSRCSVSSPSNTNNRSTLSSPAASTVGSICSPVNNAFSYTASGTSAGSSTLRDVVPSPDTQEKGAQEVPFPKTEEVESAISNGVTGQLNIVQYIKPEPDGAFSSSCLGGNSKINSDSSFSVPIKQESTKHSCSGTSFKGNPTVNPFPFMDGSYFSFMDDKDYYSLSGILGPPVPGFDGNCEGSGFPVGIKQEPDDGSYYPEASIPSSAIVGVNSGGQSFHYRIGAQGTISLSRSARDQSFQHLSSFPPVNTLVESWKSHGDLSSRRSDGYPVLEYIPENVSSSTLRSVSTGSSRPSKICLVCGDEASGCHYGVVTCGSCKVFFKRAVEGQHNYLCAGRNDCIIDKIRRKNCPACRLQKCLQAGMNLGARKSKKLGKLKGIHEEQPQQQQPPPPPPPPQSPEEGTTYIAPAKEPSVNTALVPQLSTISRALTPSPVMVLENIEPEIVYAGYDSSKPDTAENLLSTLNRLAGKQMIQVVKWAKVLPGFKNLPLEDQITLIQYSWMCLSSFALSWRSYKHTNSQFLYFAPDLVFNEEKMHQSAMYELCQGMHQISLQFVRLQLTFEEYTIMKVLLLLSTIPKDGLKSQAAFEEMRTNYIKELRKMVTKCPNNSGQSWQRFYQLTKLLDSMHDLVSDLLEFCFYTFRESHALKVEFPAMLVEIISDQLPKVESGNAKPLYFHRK
# Protocol: The KD for subfamily 3 group C nuclear hormone receptors was determined on cells by displacing ^3H-steroidal agonists for the respective receptor.
# The cold ligands and ^3H-steroids were co-incubated on cells in PBS at room temperature for one hour. Following incubation, the cells were washed twice with ice cold PBS and the unbound activity was retained for analysis. The cells were lysed with 1 mL of 1 M NaOH and collected. Bound and unbound fractions were counted in a liquid scintillation counter and expressed as a percentage of the total activity added per equal relative number of cells. […] The specific binding component was plotted against the log of the competing ligand and curve fit using a non-linear regression algorithm with PRISM software.
# rat GR = biological target: T2, rat GR (Rattus norvegicus, UniProt P06536); experiment: Competition binding assay on cells, rat GR; details: 9L cells, displacing 3H-dexamethasone; read-out: KD rtGR
# T2 construct: endogenous in cells; host or cells: 9L
# T2 sequence (P06536 1-795): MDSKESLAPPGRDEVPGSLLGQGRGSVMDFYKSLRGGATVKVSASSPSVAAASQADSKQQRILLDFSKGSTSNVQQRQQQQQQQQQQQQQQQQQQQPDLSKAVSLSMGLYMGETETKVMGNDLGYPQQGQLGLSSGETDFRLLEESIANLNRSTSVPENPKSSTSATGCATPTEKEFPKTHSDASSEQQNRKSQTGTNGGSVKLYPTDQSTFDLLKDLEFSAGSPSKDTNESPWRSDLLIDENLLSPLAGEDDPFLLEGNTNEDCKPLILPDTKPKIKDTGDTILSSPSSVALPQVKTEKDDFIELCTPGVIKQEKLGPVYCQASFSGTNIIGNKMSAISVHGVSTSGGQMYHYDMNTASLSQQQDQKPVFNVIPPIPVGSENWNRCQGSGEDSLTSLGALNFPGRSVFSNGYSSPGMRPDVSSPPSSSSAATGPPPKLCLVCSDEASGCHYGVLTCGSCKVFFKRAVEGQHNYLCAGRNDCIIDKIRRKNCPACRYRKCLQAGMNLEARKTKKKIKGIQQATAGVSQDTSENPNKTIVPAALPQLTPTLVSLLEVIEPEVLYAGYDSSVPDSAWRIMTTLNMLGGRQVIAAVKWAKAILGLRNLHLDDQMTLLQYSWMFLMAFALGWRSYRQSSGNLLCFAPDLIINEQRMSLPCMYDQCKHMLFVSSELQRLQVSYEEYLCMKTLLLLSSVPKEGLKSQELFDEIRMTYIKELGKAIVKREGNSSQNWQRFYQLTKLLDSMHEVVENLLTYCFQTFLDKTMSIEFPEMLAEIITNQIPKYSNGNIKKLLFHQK
# Protocol: The KD for subfamily 3 group C nuclear hormone receptors was determined on cells by displacing ^3H-steroidal agonists for the respective receptor. […].
# The cold ligands and ^3H-steroids were co-incubated on cells in PBS at room temperature for one hour. Following incubation, the cells were washed twice with ice cold PBS and the unbound activity was retained for analysis. The cells were lysed with 1 mL of 1 M NaOH and collected. Bound and unbound fractions were counted in a liquid scintillation counter and expressed as a percentage of the total activity added per equal relative number of cells. […]. The specific binding component was plotted against the log of the competing ligand and curve fit using a non-linear regression algorithm with PRISM software.
# [1] = Log P determination (octanol:water); format: physicochemical; details: octanol:water 1:1 v/v
# Protocol: To a microcentrifuge tube containing 1 mL of octanol:water (1:1 v/v) was added 50 μL of ^18F-GR02 (total activity = 37 MBq). The solution was vortexed vigorously for 30 sec, and the biphasic layers were allowed to separate. The layers were manually pipetted into new microcentrifuge tubes, and the activity of each fraction was read with a dose calibrator. The water fraction contained 1.7 MBq, and the octanol fraction contained 35.3 MBq.
Compound,Kd (huMR) [nM],Kd (rat GR) [nM],logP [1]
C[C@]12C=CC(=O)C=C1CCC1C2[C@@H](O)C[C@@]2(C)C1CC[C@]2(O)C(=O)COCCCF (stereo partly shown) [GR01],212,,
C[C@]12C=CC(=O)C=C1CCC1C2[C@@H](O)C[C@@]2(C)C1CC[C@]2(O)C(=O)CNC(=O)c1ccc(F)cc1 (stereo partly shown) [GR02],4030,6.18,1.33
